From ChEMBL document CHEMBL1201862, “PubChem BioAssay data set” (2004)
Calls of active or inactive are those of the source.

Columns and labels:
[1] = molecular target: Kallikrein-7 (Homo sapiens, UniProt P49862); experiment: Fluorescence Intensity-based biochemical primary high throughput dose response assay to identify activators of kallikrein-7 (K7) zymogen.
[2] = molecular target: T1, Aminopeptidase N (Plasmodium falciparum FcB1/Columbia, UniProt O96935); experiment: P. falciparum M1AAP inhibitors, biochemical, fluorogenic H-Leu-NHMec substrate, 1536-well (AID 1445); design: species or system Plasmodium falciparum 3D7, 3D7
T1 sequence (O96935 whole entry): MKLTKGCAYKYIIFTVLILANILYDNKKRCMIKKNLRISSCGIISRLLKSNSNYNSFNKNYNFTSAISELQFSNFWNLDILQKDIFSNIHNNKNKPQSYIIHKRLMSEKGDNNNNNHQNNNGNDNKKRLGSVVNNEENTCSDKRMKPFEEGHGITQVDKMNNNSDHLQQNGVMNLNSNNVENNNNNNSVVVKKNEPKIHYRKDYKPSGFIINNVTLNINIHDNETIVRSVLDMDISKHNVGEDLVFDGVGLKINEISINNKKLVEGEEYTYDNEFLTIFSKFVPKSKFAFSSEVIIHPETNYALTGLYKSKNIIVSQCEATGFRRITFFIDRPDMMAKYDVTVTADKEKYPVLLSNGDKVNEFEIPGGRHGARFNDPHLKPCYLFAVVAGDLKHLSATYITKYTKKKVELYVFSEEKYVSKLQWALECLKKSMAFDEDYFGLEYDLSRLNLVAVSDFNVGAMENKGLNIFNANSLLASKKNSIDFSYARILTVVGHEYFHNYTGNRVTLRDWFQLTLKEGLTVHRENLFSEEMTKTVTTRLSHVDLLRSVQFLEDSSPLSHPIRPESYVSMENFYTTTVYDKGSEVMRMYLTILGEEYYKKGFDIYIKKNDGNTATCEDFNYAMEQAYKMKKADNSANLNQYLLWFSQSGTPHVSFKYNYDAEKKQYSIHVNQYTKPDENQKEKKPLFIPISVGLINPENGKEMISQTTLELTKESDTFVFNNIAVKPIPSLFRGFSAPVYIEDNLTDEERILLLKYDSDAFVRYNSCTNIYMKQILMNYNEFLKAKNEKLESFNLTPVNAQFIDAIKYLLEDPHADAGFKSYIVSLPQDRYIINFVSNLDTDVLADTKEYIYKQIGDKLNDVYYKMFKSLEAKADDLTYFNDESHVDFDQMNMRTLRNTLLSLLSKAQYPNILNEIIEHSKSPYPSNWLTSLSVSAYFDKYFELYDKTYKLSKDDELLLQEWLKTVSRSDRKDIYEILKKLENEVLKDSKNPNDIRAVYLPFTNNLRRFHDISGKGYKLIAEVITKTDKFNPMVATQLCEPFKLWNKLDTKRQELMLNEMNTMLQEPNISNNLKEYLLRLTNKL

[3] = molecular target: Endoplasmic reticulum aminopeptidase 1 (Homo sapiens, UniProt Q9NZ08); experiment: ERAP1 aminopeptidase inhibitors, dose response, biochemical, cherry-pick, set 2, plate reader (AID 743314)
[4] = molecular target: T2, fMet-Leu-Phe receptor (Homo sapiens, UniProt P21462); experiment: FPR ligands, dose response (AID 519); type: functional
T2 sequence (P21462 whole entry): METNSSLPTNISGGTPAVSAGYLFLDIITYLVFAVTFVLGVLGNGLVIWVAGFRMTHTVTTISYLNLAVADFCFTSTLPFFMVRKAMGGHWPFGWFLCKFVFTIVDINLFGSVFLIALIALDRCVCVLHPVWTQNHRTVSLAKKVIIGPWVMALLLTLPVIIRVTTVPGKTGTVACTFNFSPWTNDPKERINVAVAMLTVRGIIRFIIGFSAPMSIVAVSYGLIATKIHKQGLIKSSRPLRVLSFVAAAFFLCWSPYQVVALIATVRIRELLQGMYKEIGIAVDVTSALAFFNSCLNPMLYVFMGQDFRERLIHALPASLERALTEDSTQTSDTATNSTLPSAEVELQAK

[5] = test system: Streptococcus sp. 'group A'; experiment: growth inhibition of control SK(-) GAS strain, dose response, counter-screen for streptokinase expression inhibitor project, luminescence, kanamycin, BacTiterGlo, confirmation (AID 1900); type: functional, organism-based
[6] = molecular target: T3, Streptokinase A (Streptococcus pyogenes serotype M1, UniProt P10520); experiment: S. pyogenes streptokinase expression inhibitors, potency, dose response, plasminogen activation absorbance, OD405 (AID 1914); type: functional, Streptococcus pyogenes M1 GAS;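 further: secreted streptokinase activity via plasminogen activation per viability signal from cell pellet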
T3 sequence (P10520 whole entry): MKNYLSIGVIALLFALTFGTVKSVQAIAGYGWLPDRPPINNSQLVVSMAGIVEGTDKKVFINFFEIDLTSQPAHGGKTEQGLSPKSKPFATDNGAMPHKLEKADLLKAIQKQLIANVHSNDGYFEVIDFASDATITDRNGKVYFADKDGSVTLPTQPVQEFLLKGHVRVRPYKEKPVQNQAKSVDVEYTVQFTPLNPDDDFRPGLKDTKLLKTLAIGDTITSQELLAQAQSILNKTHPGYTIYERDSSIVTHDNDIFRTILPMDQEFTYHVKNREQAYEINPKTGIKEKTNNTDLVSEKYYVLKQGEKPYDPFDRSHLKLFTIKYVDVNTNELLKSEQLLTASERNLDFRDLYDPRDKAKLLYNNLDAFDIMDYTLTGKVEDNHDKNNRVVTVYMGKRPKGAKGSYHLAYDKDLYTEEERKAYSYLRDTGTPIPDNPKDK

[7] = microbe, parasite or virus in culture; type: functional; conditions: Mycobacterium tuberculosis
[8] = test system: Streptococcus; experiment: Group A Streptococcus viability loss, dose response, counter-screen for streptokinase expression inhibitor project, luminescence, BacTiterGlo (AID 1915); type: functional, organism-based;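 further: potency for reduction of bacterial viability or growth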
[9] = Luminescence Cell-Based Dose Retest to Confirm Inhibitors of Cancer Stem Cells. [Related pubchem assays (depositor defined):AID2717, AID2721]; type: functional; conditions: Homo sapiens
[10] = molecular target: Disintegrin and metalloproteinase domain-containing protein 17 (Homo sapiens, UniProt P78536); experiment: ADAM17 protease inhibitors, dose response, counter-screen for ADAM10 exosite inhibitor project, biochemical, quenched FRET substrate (AID 743253)
Chain of Disintegrin and metalloproteinase domain-containing protein 17 (P78536 whole entry, the tested form may be a part): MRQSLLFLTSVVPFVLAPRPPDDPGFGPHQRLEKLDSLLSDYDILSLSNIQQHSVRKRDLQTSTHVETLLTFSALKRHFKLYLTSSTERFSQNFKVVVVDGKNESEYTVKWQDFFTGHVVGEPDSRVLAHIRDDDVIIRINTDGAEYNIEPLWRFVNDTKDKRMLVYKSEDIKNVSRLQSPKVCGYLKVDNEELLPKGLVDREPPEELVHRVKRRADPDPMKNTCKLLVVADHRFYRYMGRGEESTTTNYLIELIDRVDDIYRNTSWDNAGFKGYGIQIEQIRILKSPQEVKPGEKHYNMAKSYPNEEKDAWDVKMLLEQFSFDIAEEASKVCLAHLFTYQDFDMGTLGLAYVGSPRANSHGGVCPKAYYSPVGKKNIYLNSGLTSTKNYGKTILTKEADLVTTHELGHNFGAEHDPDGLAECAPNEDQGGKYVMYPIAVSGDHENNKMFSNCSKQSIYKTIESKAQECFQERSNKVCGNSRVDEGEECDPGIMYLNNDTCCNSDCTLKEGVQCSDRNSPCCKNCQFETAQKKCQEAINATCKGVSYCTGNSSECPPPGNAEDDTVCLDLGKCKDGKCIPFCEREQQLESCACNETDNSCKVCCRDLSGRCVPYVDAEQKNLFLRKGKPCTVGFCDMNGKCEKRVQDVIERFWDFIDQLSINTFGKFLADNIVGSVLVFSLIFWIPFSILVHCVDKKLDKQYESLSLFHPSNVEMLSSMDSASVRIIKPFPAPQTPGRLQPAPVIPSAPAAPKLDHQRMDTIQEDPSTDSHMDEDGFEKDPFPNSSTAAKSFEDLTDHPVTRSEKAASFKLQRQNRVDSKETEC

[11] = molecular target: Mitogen-activated protein kinase 10 (Homo sapiens, UniProt P53779); experiment: Dose response biochemical screening assay for inhibitors of c-Jun N-Terminal Kinase 3 (JNK3). [Related pubchem assays: 746 ]
Chain of Mitogen-activated protein kinase 10 (P53779 whole entry): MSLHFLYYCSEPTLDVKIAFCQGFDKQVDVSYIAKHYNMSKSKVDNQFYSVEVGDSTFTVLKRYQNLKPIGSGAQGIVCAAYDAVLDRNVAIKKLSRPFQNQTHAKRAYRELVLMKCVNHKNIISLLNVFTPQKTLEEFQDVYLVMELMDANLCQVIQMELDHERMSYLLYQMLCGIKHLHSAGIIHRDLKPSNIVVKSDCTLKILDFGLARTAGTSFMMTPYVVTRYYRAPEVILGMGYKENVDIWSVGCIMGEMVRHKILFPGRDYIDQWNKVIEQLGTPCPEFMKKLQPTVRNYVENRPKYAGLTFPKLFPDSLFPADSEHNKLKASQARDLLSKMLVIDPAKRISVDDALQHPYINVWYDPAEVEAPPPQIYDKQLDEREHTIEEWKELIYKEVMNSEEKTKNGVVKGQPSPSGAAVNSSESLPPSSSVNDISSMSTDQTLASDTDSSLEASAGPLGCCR

[12] = molecular target: Cytochrome P450 2D6 (Homo sapiens, UniProt P10635);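 further: CYP2D6 member of a cytochrome P450 panel assay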
Chain of Cytochrome P450 2D6 (P10635 whole entry): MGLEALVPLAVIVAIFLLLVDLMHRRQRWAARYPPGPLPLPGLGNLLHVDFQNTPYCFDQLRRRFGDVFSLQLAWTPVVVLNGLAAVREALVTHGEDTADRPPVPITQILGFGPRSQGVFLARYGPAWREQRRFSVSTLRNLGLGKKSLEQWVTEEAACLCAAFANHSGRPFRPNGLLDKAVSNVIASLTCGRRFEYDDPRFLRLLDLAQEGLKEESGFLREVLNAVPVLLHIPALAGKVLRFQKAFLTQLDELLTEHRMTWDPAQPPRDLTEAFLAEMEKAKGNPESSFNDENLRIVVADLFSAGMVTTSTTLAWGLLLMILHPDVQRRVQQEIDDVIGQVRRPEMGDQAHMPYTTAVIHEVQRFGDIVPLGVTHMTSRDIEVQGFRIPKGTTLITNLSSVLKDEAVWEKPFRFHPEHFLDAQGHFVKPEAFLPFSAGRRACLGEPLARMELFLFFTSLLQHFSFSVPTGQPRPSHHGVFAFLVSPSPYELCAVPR

[13] = molecular target: T4, Cytochrome P450 1A2 (Homo sapiens, UniProt P05177);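 further: PubChem cytochrome P450 panel assay, CYP1A2 panel member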
T4 sequence (P05177 whole entry): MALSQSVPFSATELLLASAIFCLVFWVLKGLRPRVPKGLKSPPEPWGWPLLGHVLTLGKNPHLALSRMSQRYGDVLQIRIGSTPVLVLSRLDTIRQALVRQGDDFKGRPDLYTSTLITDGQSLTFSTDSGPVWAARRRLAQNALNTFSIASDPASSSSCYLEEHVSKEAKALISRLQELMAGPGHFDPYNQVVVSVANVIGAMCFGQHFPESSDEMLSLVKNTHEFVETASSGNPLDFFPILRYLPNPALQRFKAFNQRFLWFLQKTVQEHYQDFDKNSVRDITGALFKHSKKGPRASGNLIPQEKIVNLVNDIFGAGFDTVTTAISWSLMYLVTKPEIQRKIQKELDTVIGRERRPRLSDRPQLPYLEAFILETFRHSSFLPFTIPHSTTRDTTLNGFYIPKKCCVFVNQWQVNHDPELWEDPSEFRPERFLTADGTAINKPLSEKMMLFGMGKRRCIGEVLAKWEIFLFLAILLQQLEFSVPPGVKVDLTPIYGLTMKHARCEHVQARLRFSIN

[14] = A375 melanoma cell viability loss, dose response, counter-screen for MITF inhibitor project, CellTiter-Glo luminescence, dry powder, set 4 (AID 624364); type: functional, cell-based; conditions: A-375;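 further: A375 melanoma cells are MITF independent so this is a counter screen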
[15] = A375 melanoma cell cytotoxicity, dose response, counter-screen for MITF inhibitor project, CellTiter-Glo luminescence, dry powder, set 2 (AID 624489); type: functional, cell-based; conditions: A-375;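 further: actives are compounds lowering A375 viability meaning general cytotoxicity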
[16] = molecular target: Peroxisome proliferator-activated receptor gamma/Nuclear receptor coactivator 1 (Homo sapiens, UniProt P37231); experiment: TR-FRET dose response biochemical High Throughput Screening assay for agonists of the steroid receptor coactivator 1 (SRC-1) recruitment by the peroxisome proliferator-activated receptor gamma (PPAR gamma): non-selective agonists. [Related pubchem assays (depositor defined):AID1300, AID1808, AID504735, AID631]; type: protein assay
[17] = molecular target: Peroxisome proliferator-activated receptor gamma/Nuclear receptor coactivator 3 (Homo sapiens, UniProt P37231); experiment: TR-FRET dose response biochemical High Throughput Screening assay for agonists of the steroid receptor coactivator 3 (SRC-3) recruitment by the peroxisome proliferator-activated receptor gamma (PPAR gamma): non-selective agonists. [Related pubchem assays: 1301 (Confirmation screen.), 1048 (Primary screen.)]; type: functional
[18] = molecular target: Peroxisome proliferator-activated receptor gamma/Nuclear receptor coactivator 2 (Homo sapiens, UniProt P37231); experiment: TR-FRET dose response biochemical High Throughput Screening assay for agonists of the steroid receptor coactivator 2 (SRC-2) recruitment by the peroxisome proliferator-activated receptor gamma (PPAR gamma): non-selective agonists. [Related pubchem assays: 1297, 1032 ]; type: functional
Chain of Peroxisome proliferator-activated receptor gamma/Nuclear receptor coactivator 2 (P37231 whole entry): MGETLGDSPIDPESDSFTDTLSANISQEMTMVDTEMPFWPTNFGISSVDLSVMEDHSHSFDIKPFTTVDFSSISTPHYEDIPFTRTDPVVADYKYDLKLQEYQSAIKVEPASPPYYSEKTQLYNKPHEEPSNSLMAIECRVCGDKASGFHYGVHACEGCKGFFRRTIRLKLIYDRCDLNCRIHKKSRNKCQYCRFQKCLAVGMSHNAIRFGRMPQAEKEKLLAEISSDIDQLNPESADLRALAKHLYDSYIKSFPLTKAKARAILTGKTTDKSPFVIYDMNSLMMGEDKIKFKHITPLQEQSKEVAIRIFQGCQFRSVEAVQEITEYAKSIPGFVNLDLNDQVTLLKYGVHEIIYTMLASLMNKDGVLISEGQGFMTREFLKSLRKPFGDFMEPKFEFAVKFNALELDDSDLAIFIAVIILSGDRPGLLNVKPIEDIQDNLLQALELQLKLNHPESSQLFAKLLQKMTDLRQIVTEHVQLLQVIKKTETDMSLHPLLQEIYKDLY
Chain of Peroxisome proliferator-activated receptor gamma/Nuclear receptor coactivator 2 (Q15596 whole entry, further chain): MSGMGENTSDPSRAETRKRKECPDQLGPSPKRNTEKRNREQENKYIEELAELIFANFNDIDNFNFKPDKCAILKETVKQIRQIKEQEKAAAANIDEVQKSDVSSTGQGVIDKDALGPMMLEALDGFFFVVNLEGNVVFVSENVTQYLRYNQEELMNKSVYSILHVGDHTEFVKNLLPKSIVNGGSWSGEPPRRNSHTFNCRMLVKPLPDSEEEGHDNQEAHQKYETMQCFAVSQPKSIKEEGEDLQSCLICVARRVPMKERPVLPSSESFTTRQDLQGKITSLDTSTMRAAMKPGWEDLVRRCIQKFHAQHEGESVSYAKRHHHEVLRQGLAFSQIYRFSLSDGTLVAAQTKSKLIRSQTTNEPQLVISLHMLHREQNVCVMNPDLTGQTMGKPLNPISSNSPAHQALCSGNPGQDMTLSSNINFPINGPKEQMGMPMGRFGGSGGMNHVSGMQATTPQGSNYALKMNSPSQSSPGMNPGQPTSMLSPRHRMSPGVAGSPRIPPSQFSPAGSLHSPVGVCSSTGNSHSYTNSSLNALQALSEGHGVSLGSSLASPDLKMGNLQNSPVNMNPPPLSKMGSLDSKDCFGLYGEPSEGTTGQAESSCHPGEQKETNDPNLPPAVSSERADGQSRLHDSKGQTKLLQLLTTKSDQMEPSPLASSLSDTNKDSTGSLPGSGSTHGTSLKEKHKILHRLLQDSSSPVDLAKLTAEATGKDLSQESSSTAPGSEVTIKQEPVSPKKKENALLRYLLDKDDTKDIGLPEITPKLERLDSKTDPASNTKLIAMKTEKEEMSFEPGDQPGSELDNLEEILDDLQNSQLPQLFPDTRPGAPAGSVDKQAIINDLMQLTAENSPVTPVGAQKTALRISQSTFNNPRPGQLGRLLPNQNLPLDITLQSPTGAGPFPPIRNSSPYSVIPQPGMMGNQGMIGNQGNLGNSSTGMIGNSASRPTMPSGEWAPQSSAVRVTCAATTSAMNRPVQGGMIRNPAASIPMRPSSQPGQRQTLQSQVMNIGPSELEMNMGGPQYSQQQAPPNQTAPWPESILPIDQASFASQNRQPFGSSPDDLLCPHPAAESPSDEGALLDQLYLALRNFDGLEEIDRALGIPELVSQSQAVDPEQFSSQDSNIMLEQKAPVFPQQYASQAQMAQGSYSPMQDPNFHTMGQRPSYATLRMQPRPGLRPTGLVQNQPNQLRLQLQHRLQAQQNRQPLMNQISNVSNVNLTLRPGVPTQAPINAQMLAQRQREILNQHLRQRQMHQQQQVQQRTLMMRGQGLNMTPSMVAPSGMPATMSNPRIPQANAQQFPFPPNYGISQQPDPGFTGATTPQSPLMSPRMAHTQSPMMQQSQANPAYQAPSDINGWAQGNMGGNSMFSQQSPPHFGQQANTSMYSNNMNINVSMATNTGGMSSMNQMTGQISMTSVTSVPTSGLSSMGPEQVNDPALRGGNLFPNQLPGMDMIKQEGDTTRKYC

[19] = NIH-3T3 fibroblast cytotoxicity, dose response, cytotoxicity control, cell-based, fluorescence, Alamar Blue, secondary assay (AID 2327); type: functional;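 further: NIH-3T3 mouse fibroblasts cultured with fluconazole at 8 µg/mL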
[20] = C. albicans growth with fluconazole, confirmation, fluorescence, retest (AID 2467); type: functional, cell-based
[21] = molecular target: T5, Protein skinhead-1 (Caenorhabditis elegans, UniProt P34707); type: functional
T5 sequence (P34707 whole entry): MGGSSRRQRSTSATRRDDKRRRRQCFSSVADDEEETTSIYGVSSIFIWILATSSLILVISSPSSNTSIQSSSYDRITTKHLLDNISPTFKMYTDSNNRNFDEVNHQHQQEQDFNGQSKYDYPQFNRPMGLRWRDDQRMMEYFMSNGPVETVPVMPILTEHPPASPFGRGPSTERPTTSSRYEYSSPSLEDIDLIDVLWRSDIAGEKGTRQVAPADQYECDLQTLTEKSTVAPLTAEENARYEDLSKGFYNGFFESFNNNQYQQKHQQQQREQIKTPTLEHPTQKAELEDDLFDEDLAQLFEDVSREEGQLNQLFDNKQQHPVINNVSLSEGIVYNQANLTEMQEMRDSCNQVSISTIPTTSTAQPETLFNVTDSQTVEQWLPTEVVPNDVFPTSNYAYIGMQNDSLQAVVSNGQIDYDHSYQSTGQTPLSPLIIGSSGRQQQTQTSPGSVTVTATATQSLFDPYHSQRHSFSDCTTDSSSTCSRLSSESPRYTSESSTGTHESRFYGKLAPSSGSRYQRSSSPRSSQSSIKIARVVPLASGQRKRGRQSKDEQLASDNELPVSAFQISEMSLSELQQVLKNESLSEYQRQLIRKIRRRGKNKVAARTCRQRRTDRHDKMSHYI

[22] = cells; conditions: HEK293
[23] = Shn3 3'UTR reporter inhibitors, dose response, cell-based, Clone20 osteoblasts, firefly luciferase, cherry-picked (AID 624132); type: functional;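 further: firefly luciferase luminescence from reporter carrying the Shn3 3'UTR in osteoblasts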
[24] = control 3'UTR Renilla luciferase suppression, dose response, counter-screen for Shn3 inhibitor project, cell-based, Clone20-Shn3RL, cherry-picked (AID 624133); type: functional
[25] = reduction of Shn3 3'UTR firefly luciferase signal, dose response, Schnurri-3 inhibitor project, cell-based, Clone20 osteoblasts, cherry-pick, set 2 (AID 720490); type: functional;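 further: actives lower the luminescence signal as inhibitors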
[26] = molecular target: Paired box protein Pax-8 (Homo sapiens, UniProt Q06710); experiment: inhibitors of PAX8-driven TPO luciferase reporter, dose response, RMG-I cells, cherry-pick (AID 687027); type: functional, cell-based;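 further: luciferase reporter driven by Pax8 target thyroperoxidase promoter measured by SteadyGlo luminescence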
Chain of Paired box protein Pax-8 (Q06710 whole entry): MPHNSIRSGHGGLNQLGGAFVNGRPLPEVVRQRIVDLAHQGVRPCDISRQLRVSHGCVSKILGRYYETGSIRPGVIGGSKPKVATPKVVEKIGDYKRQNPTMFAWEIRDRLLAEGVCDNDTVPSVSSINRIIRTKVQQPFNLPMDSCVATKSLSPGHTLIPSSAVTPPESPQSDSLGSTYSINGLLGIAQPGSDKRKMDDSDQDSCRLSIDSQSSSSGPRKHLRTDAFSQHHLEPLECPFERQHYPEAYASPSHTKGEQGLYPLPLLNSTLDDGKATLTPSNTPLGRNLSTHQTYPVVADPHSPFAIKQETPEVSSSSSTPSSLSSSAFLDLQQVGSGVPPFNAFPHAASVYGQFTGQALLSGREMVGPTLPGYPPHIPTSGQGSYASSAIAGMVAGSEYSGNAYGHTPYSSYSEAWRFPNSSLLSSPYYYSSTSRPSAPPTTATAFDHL

[27] = A2780 ovarian cancer cell cytotoxicity, dose response, cytotoxicity control, plate reader, dry powder samples (AID 743046); type: functional, cell-based
[28] = NIH:OVCAR-3 ovarian cancer cell cytotoxicity, dose response, PAX8 inhibitor project, plate reader, dry powder samples (AID 743044); type: functional, cell-based
[29] = cytotoxicity in OVCAR8 ovarian cancer cells, dose response, PAX8 project, cell-based, plate reader, dry powder samples (AID 743197); type: functional; conditions: OVCAR-8

Chain of Kallikrein-7 (P49862 whole entry): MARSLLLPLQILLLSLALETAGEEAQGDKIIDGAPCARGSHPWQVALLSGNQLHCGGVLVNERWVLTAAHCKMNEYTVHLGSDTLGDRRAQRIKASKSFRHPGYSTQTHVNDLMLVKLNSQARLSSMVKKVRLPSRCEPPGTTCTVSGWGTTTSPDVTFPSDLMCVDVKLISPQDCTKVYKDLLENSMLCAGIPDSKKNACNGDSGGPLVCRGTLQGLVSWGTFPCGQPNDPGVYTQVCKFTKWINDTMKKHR

O=c1c(-c2ccccc2)coc2c(CN3CCOCC3)c(O)ccc12
EC50 [1]: 12.4 µM (inactive)

Cc1cc(=O)oc2c(CN3CCN(C)CC3)c(O)c(Cl)cc12
IC50 [2]: 33.6 µM (active)
AC50 [3]: 6.77 µM (active)

Cc1nn2c(O)c3c(nc2c1-c1ccccc1)CCC3
Ki [4]: 20.4 µM (inactive)

O=C(Nc1ccc(OCC(F)(F)C(F)F)c(C(F)(F)F)c1)c1ccc(Cl)cc1
EC50 [5]: 5.77 µM (active)
EC50 [6]: 1.77 µM (active)
CC50 [7]: 13.4 µM (active)
EC50 [8]: 7.49 µM (active)
AC50 [9]: 3.52 µM (active)
IC50 [10]: > 69.5 µM (inactive)

Cc1ccc(C(=O)C2=C(O)C(=O)N(CCCn3ccnc3)C2c2ccc(OC(C)C)cc2)o1 (centres undefined)
IC50 [11]: 37.4 µM (not active)
Ki [4]: > 66.7 µM (inactive)
AC50 [12]: 12.6 µM (inconclusive)
AC50 [13]: 39.8 µM (inconclusive)

CC(=O)N(C)C1=C(N2CCCCC2)C(=O)c2ccccc2C1=O
AC50 [14]: 27.1 µM (active)
AC50 [15]: 14.8 µM (active)

COc1ccc(C(=O)C2=C(O)C(=O)N(c3nc(C)c(C)s3)C2c2ccco2)cc1 (centres undefined)
EC50 [16]: > 79.4 µM (inactive)
EC50 [17]: > 79.4 µM (not active)
EC50 [18]: 37.9 µM (not active)
Ki [4]: > 66.7 µM (inactive)

CCc1cccc(C)c1N=C(S)NCc1ccc2c(c1)cc(C)n2C
EC50 [19]: 51.5 µM (active)
EC50 [20]: > 38 µM (not active)
IC50 [21]: > 100 µM (inactive)
AC50 [22]: > 52 µM (inactive)

NC1=C(c2ccc(OC(F)(F)F)cc2)C(=O)c2ccccc2C1=O
AC50 [14]: > 70 µM (inactive)
AC50 [15]: > 70 µM (inactive)

CCCOc1c(Br)cc(C2C3=C(CCCC3=O)N(C)C3=C2C(=O)CCC3)cc1OC
AC50 [22]: > 52 µM (inactive)

COc1ccccc1NC(=O)Cn1cc(C(=O)C2CC2)c2ccccc21
AC50 [23]: 4.76 µM (active)
AC50 [24]: 29 µM (active)
AC50 [25]: 6.08 µM (active)

C[C@@H]1CCCCO[C@H](CN(C)C(=O)Cc2ccccc2)[C@@H](C)CN([C@@H](C)CO)C(=O)c2cc(NC(=O)Nc3ccc(C(F)(F)F)cc3)ccc2O1
AC50 [26]: 2.85 µM (active)
AC50 [27]: 54.7 µM (active)
AC50 [28]: 54.5 µM (active)
AC50 [29]: 58.8 µM (active)
